This is an account of results in paper PMC5472308, “Characterization of the regulation of a plant polysaccharide utilization operon and its role in biofilm formation in Bacillus subtilis” (PLoS ONE, 2017).

This assay has as its target T1, LacZ (Escherichia coli, UniProt P00722).
T1 construct: lacZ reporter of plasmid pDG268 (PganS-lacZ at amyE) expressed in B. subtilis YC1074 (ganR R20H, ganA deleted); cleared sonicated lysate
In kind it is biochemical. The settings on record: 2.5 mM ONPG; Z buffer; qualitative.

T1 sequence (P00722 2-1024): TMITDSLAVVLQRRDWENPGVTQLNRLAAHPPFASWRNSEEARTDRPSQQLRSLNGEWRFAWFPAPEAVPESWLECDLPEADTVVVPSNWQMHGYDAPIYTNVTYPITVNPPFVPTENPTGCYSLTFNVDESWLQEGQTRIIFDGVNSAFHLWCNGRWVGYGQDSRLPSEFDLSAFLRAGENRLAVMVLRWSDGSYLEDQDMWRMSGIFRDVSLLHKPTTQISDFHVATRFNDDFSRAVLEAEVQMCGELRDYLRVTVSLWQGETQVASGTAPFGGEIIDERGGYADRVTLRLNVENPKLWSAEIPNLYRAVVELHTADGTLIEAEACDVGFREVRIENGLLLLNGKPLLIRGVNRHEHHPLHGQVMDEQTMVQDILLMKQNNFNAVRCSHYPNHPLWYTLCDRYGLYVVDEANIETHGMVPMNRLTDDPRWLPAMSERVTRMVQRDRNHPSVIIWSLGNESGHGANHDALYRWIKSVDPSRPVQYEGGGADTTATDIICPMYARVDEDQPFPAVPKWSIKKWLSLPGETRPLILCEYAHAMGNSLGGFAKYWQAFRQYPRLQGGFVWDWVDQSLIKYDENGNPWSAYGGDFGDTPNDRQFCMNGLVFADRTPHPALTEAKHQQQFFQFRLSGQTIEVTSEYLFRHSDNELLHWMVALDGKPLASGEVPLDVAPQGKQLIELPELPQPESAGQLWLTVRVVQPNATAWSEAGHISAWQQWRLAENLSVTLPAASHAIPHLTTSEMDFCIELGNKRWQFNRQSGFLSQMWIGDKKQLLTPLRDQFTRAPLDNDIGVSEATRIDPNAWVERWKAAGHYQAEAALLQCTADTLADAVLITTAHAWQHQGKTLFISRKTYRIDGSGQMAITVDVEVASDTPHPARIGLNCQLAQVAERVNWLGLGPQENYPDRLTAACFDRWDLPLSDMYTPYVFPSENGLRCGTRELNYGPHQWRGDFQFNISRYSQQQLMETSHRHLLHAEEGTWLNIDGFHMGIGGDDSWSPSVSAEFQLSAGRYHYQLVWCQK

For `OC[C@H]1OC(O)[C@H](O)[C@@H](O)[C@H]1O` (stereo partly shown) [galactose], the “% activity with 2.5-20 mM galactose” value is recorded as “we only observed very weak inhibition of catalytic activities of LacZ”.
